{"source": "patent US7476767B2", "about": "“Alpha-hydroxy sulfonate aldehydes, germicidal compositions containing the alpha-hydroxy sulfonate aldehydes, or mixtures of alpha-hydroxy sulfonate aldehydes and phthalaldehydes, and methods of using the compounds or compositions for disinfection or sterilization” (Ethicon, Inc., priority 2004, dated 2009)", "key": {"[1]": {"test_system": "Mycobacterium terrae bacteria", "experiment": "Bacterial suspension test", "format": "cell-based", "settings": "for Log Reductions/mL: 20° C.; for Germicidal Efficacy: Table 14 summary", "protocol": "In this test method, 9 mL of the germicide to be tested is placed in a tube, put into a water bath and allowed to come to the desired temperature. One mL of the test organism, including at least 7 logs/mL of Mycobacterium terrae bacteria, is added to the 9 mL of the germicide to be tested. […] It will be appreciated by those skilled in the art that other concentrations may be utilized by proper dilution and accounting. At appropriate time intervals, 1 mL aliquots of the germicide-cell suspension were removed and added directly into 9 mL of a 1% glycine solution (neutralizer) and mixed thoroughly to neutralize the germicide in the transferred suspension. The glycine solution was prepared from solid glycine, which is available from VWR Scientific Products, among others. The above-identified 10 mL neutralized solution was then poured through a membrane filter having an average pore size of 0.45 micrometers. The filter was then rinsed twice with at least 150 mL of the 1% glycine solution per rinse. The filter was then placed on an agar plate and incubated for twenty-one days at 37° C. In the above procedure, if dilution was needed, then the 1 mL germicidal-cell suspension was diluted in 99 mL of a phosphate buffer before addition to the 9 mL of the 1% glycine solution. The phosphate buffer was DiLu-LoK™ Butterfields Phosphate Buffer, available from Hardy Diagnostics, of Santa Maria, Calif. The surviving colonies are then counted. The data is plotted as S/So vs. time. So is the initial count of the bacteria in the above 10 mL solution which is at least 10^6 bacteria/mL, and S is the surviving bacteria from the above filter on the agar plate. The results of the experiments were presented in terms of log reductions. Log reduction is the difference between log(So) and log(S). As one example, if log(So)=6.2, and if there were 100 survivors, then the log(S)=2, and the log reduction was reported as 4.2."}, "[2]": {"experiment": "Solubility in water", "format": "physicochemical"}}}
{"compound": "4-pyridinyl-propanedial", "values": [{"measurement": "Log Reductions/mL", "setting": "[1]; Saturated (~2.3% w/v), 5 min", "result": 4.0, "unit": "log reductions/mL"}]}
{"compound": "O=Cc1ccc(Br)cc1C=O", "note": "[4-bromo-phthalaldehyde]", "values": [{"measurement": "Log Reductions/mL", "setting": "[1]; 0.1%, 30 min exposure", "result": "Total Kill"}]}
{"compound": "O=Cc1ccc(Cl)cc1C=O", "note": "[4-chloro-phthalaldehyde]", "values": [{"measurement": "Log Reductions/mL", "setting": "[1]; 2.7 w/v % in 20% isopropanol, 5 min", "result": "Total Kill"}]}
{"compound": "O=Cc1ccc(F)cc1C=O", "note": "[4-fluoro-phthalaldehyde]", "values": [{"measurement": "Log Reductions/mL", "setting": "[1]; 0.25%, 60 min exposure", "result": "Total Kill"}]}
{"compound": "O=Cc1ccccc1C(O)S(=O)(=O)[O-].[Na+]", "note": "(centres unmarked) [(2-formyl-phenyl)-hydroxy-methane sulfonic acid,sodium salt]", "values": [{"measurement": "Log Reductions/mL", "setting": "[1]; 9.1%, 5 min", "result": "Confluent"}]}
{"compound": "O=Cc1cccc(C=O)c1", "note": "[IPA, isophthalaldehyde]", "values": [{"measurement": "Log Reductions/mL", "setting": "[1]; Table 11: 0.3%, dissolved in 20% isopropanol, 5 min", "result": "Confluent"}, {"measurement": "Germicidal Efficacy", "setting": "[1]", "result": "Poor"}, {"measurement": "Log Reductions/mL", "setting": "[1]; Table 15: 0.3%, dissolved in 20% isopropanol, 5 min", "result": "Confluent"}]}
{"compound": "O=Cc1ccccc1C=O", "note": "[OPA, phthalaldehyde]", "values": [{"measurement": "solubility in water", "setting": "[2]", "result": "about 5 % by weight"}, {"measurement": "Germicidal Efficacy", "setting": "[1]", "result": "Good"}]}
{"compound": "O=Cc1ccc(C=O)cc1", "note": "[TPA, terephthalaldehyde]", "values": [{"measurement": "Log Reductions/mL", "setting": "[1]; 0.2%, dissolved in 20% isopropanol, 5 min", "result": "Confluent"}, {"measurement": "Germicidal Efficacy", "setting": "[1]", "result": "Poor"}]}
{"compound": "O=CC(C=O)c1ccccc1", "note": "[phenyl-propanedial]", "values": [{"measurement": "solubility in water", "setting": "[2]", "result": "about 1%"}, {"measurement": "Log Reductions/mL", "setting": "[1]; Table 15: ~1%, 5 min", "result": 4.5, "unit": "log reductions/mL"}]}
